Tests used:
[1] = target: opiate receptors isolated from rat brain; experiment: Opiate Binding Assay (displacement of 3H-Naloxone); conditions: concentration inhibiting specific binding of 1 nM 3H-Naloxone to rat brain receptor membranes by 50%
Protocol: Opiate Binding Assay. The test compounds were evaluated for their ability to displace the binding of ^3 H-Naloxone to opiate receptors isolated from rat brain. Male rats [Crl: CD(SD)BR] obtained from Charles River Laboratories (Portage, MI) were sacrificed by cervical dislocation. A purified homogenate of receptor membranes was prepared from the brains according to the method described by Chang and Cuatrecasas. (K.-J. Chang and P. Cuatrecasas. Multiple Opiate Receptors: Enkephalins And Morphine Bind To Receptors Of Different Specificity. J. Biol. Chem. 254, 2610-2618 (1979).) The brains were homogenized in 10 volumes of 0.32M sucrose and centrifuged twice at 6,000xg for 15 minutes. Following centrifugation of the supernatants at 40,000xg for 30 minutes, the pellets were resuspended in 5 mM tris-HCl, and centrifuged at 6,000. The supernatant was centrifuged at 40,000xg. The resuspension in 5 mM Tris-HCl was repeated twice. The final pellet was resuspended in 2 volumes of 50 mM tris HCl (pH 7.4). The homogenate was assayed for protein content according to the method of Itzhaki and Gill (R. F. Itzhaki and D. M. Gill. A Micro-Biuret Method for Estimating Proteins. Anal. Biochem. 9, 401-410 (1964)).
The binding of the test compounds to the receptor membrane preparation was measured using a modification of the method of Pert and Snyder (C. B. Pert and S. H. Synder. Properties of Opiate-Receptor Binding in Rat Brain. Proc. Natl. Acad. Sci. 70, 2243-2247 (1973)). The receptor assay was run using final concentrations of 1 nM ^3 H-Naloxone and of tissue homogenate (0.5 mg/ml of homogenate protein. Levorphanol (1×10^-5 M) was used as the displacer for non-specific binding. Final concentration of the test compounds was 10^-5 M. The assay was run in 0.05M tris HCl (pH 7.4). Total assay volume was 1.0 ml.
Samples were incubated at 25° C. for 60 min., filtered over Whatman GF/C glass fiber filters, and rinsed twice with 4 ml washes of ice-cold buffer. The filters were air-dried at 50° C. for 30 min. After drying 10 mls of PCS was added to the vial and the radioactivity determined using a Tracor Analytic Mark III liquid scintillation counter with a counting efficiency of 48%.
The IC50 values, the concentration of the test compounds which inhibited ^3 H-Naloxone specific binding to the opiate receptor by 50%, were obtained from log-logit plots of concentration-response curves.

[2] = tested on: phenylbenzoquinone-induced writhing in mice; experiment: Writhing assay (phenylbenzoquinone-induced writhing); assay type: in vivo, mouse; conditions: 30 min before phenylbenzoquinone i.p., active = writhes significantly less than saline group; for Writhing Mouse Oral: screening dose 10 mg/kg oral (intragastric); for Writhing Mouse Subc.: screening dose 10 mg/kg subcutaneous
Protocol: Writhing assay. Male Charles River albino mice (CD-1/HAM/1LR) weighing between 20 and 30 grams were used. Thirty minutes after subcutaneous or intragastric administration of the test compound (0.1 ml/10 gram body weight), 0.025% (w/v) phenylbenzoquinone was injected intraperitoneally (0.1 ml/10 gram body weight). Five minutes later, each mouse was placed in a large glass beaker and the number of writhes that occurred in the subsequent ten minutes is counted. A writhe consisted of dorsoflexion of the back, extension of the hindlimbs, and strong contraction of the abdominal musculature. The test compound was considered to have produced analgesia in a mouse if the number of writhes elicited by phenylbenzoquinone was equal to or less than one-half the median number of writhes recorded for the saline-treated group that day. The results were expressed as the number of mice (out of a possible ten) in which the test compound produced analgesia. […] If the initial test dose of 10 mg/kg inhibited writhing in greater than 6 of 10 mice, the effect of additional doses was evaluated and an ED50 value was calculated using a maximum likelihood function.

[3] = tested on: brain opiate receptor sites; conditions: partially purified brain opiate receptor sites; Bradberry et al. 1976; cited from earlier work
rat = conditions: injected directly into the brain of the rat; Belluzi et al. 1976; cited from earlier work

Molecule	IC50 [1] [nM]	Writhing Mouse Oral [2]	Writhing Mouse Subc. [2]	binding to brain opiate receptor sites [3]	analgesic activity (rat)
2,6-dimethyl-L-tyrosyl-N-(3-phenylpropyl)-D-methioninamide, monohydrochloride [Example 14]	0.2	Active	Active		
L-tyrosyl-γ-(methylsulfonyl)-N-(3-phenylpropyl)-DL-α-aminobutanamide, monohydrochloride [Example 8]	9.6	Inactive	Inactive		
methionine enkephalin				binds stereospecifically	weak, fleeting analgesic activity
Cc1cc(O)cc(C)c1C[C@@H](N)C(=O)N[C@H](CC[S+](C)[O-])C(=O)NCCCc1ccccc1.Cl (stereo partly drawn) [Example 17, 2,6-dimethyl-D-tyrosyl-γ-(methylsulfinyl)-N-(3-phenylpropyl)-D-α-aminobutanamide, monohydrochloride]	96	Inactive	Inactive		
L-tyrosyl-N-(3-phenylpropyl)-D-methioninamide, monohydrochloride [Example 4]	16	Inactive	Inactive		
2,6-dimethyl-L-tyrosyl-α-(methylsulfinyl)-N-(3-phenylpropyl)-D-α-aminobutanamide, monohydrochloride [Example 16]	0.4	Active	Active		
2,6-dimethyl-D-tyrosyl-N-(3-phenylpropyl)-D-methioninamide, monohydrochloride [Example 15]	160	Inactive	Inactive		

Source: patent US4757153A, “Sulfide, sulfinyl and sulfone dipeptide amides” (G. D. Searle & Co., priority 1986, dated 1988)
